Results from US11278555B2, “Combinational therapies for treatment of cancer comprising a bacteriochlorophyll derivative” (Yeda Research and Development Co. Ltd., priority 2016, dated 2022).

Legend:
[1] = test system: splenic immune cells of 4T1-bearing mice; assay: FACS profile of splenic immune cell populations in 4T1-bearing mice after STL-6014 PDT and Gemzar; format: in vivo
Experimental: (§1) • (i) Bacteriochlorophyll Derivatives—The Bchl derivatives and RGD-conjugates thereof were provided by Steba Biotech (Rehovot, Israel). […] Concentration was verified by spectrophotometric measurement. STL-7012 was provided as dipotassium salt. Working solution was prepared by dissolving STL-7012 K^+ salt in 5% mannitol solution (1 mg/ml). […] WST11 was supplied as a powder and kept in the dark at −20° C. Stock was prepared by dissolving WST11 in DDW containing 5% glucose and 0.67% mannitol, aliquoted and lyophilized. Working solution was reconstituted with DDW and the concentration of solution was confirmed spectrophotometrically. Alternatively, Clinical WST11 (batch: P00611, and 10-130611) was supplied as lyophilized formulation. Material was dissolved in 5% dextrose, aliquoted and stored at −20° C. At the day of treatment the aliquot was thawed, filtered and the concentration of solution was confirmed spectrophotometrically. • (ii) Chemotherapeutic drugs preparation and storage—Gemcitabine (GEM, Gemzar®, Lilly) was purchased from a local pharmacy as a powder, dissolved in saline to a concentration of 38 mg/ml, aliquoted and stored at −20° C. Aliquots were thawed, diluted with saline to a desired concentration and used on the same day at a dose of 75 mg/kg. Cyclophosphamide (CTX, Endoxan®, Baxter Oncology Gmbh, Germany) was purchased from a local pharmacy. A stock solution of 20 mg/ml was prepared by dissolving in 0.9% NaCl, aliquoted and stored at −20° C. Aliquots were thawed, diluted with saline if needed to a desired concentration and used on the same day prepared at indicated doses. • (iii) Murine cell lines—Mammary luciferase (luc)-labeled 4T1 cell line (4T1-Luc) was a kind gift from Dr. Zvi Granot (Faculty of Medicine, The Hebrew University of Jerusalem, Israel); melanoma B16-F10 cell line was obtained from the American Type Culture Collection (ATCC, Manassas, Va.); bladder MB49 cell line was a kind gift from James Allison (MSKCC, New York, USA), and luc-labeled MB49-cell line was established using the murine stem cell virus (MSCV)-puromycin-luc-GFP construct (kindly provided by Dr. Emily Cheng, Human Oncology and Pathogenesis Program, MSKCC). 4T1 and MB49 cells were maintained in DMEM medium and B16-F10 cells in RPMI medium supplemented with 1 mmol/L sodium pyruvate, 10% fetal calf serum (FCS), 250 μg/ml hygromycin, 0.06 mg/ml penicillin and 0.1 mg/ml streptomycin. The cells were grown as monolayer at 37° C. in a humidified atmosphere (5% CO2, 95% air). • (iv) Murine tumor models—Female, Balb/c mice (6-8 week old) were grafted either subcutaneously (s.c.) into the right hind leg or orthotopically with 1×10^6 4T1 cells suspended in 50 or 1000 PBS. For the rechallenge study, 2×10^5 4T1 cells were orthotopically grafted. For bladder cancer model, 5×10^4 of MB49 or MB49-luciferase cell line were s.c. injected into the right flank of C57B/6 male mice (7-8 weeks old, Taconic, Hudson, N.Y.) 15 days prior to VTP treatment. For the efficacy study of VTP in immune compromised mice, the same number of MB49 cells was injected in the flank of Rag^−/− on C57B/6 background or C57B/6 male mice (7-8 week old, Jackson Laboratory, Bar Harbor, Me.). […] Whole body imaging of luciferase-transfected tumors and metastases were recorded five minutes following 75 mg Kg^−1 intraperitoneal (i.p.) injection of D-luciferin with respective filter sets. • (vi) PDT treatment protocol: 4T1-Luc cells were grafted in the mammary pad of Balb/c mice. […]

[2] = test system: orthotopic 4T1-Luc tumors; assay: STL-6014 PDT and metronomic Gemzar in mice bearing 4T1-Luc tumors in the mammary pad (Scheme 1): primary tumor, survival, lung metastases, re-challenge; format: in vivo, Balb/c mice
Experimental: as §1

[3] = test system: orthotopic 4T1-Luc breast tumors; assay: Whole-body NIR fluorescence imaging of accumulation and clearance in 4T1 tumor bearing mice; format: in vivo; settings: i.v.
Experimental: • (i) Bacteriochlorophyll Derivatives—The Bchl derivatives and RGD-conjugates thereof were provided by Steba Biotech (Rehovot, Israel). […] Concentration was verified by spectrophotometric measurement. STL-7012 was provided as dipotassium salt. Working solution was prepared by dissolving STL-7012 K^+ salt in 5% mannitol solution (1 mg/ml). […] WST11 was supplied as a powder and kept in the dark at −20° C. Stock was prepared by dissolving WST11 in DDW containing 5% glucose and 0.67% mannitol, aliquoted and lyophilized. Working solution was reconstituted with DDW and the concentration of solution was confirmed spectrophotometrically. Alternatively, Clinical WST11 (batch: P00611, and 10-130611) was supplied as lyophilized formulation. Material was dissolved in 5% dextrose, aliquoted and stored at −20° C. […] Aliquots were thawed, diluted with saline to a desired concentration and used on the same day at a dose of 75 mg/kg. […] Whole body imaging of luciferase-transfected tumors and metastases were recorded five minutes following 75 mg Kg^−1 intraperitoneal (i.p.) injection of D-luciferin with respective filter sets. • (vi) PDT treatment protocol: 4T1-Luc cells were grafted in the mammary pad of Balb/c mice. […] Ablation of primary tumors was assessed every 7 days by imaging the tumor's luciferase-mediated bioluminescence signal, using IVIS.

[4] = test system: Foxp3+ Treg, CD8+ T cells, G-MDSC/neutrophils; format: in vivo
Experimental: (§2) • (i) Bacteriochlorophyll Derivatives—The Bchl derivatives and RGD-conjugates thereof were provided by Steba Biotech (Rehovot, Israel). […] Concentration was verified by spectrophotometric measurement. STL-7012 was provided as dipotassium salt. Working solution was prepared by dissolving STL-7012 K^+ salt in 5% mannitol solution (1 mg/ml). […] WST11 was supplied as a powder and kept in the dark at −20° C. Stock was prepared by dissolving WST11 in DDW containing 5% glucose and 0.67% mannitol, aliquoted and lyophilized. Working solution was reconstituted with DDW and the concentration of solution was confirmed spectrophotometrically. Alternatively, Clinical WST11 (batch: P00611, and 10-130611) was supplied as lyophilized formulation. Material was dissolved in 5% dextrose, aliquoted and stored at −20° C. […] Aliquots were thawed, diluted with saline to a desired concentration and used on the same day at a dose of 75 mg/kg. Cyclophosphamide (CTX, Endoxan®, Baxter Oncology Gmbh, Germany) was purchased from a local pharmacy. A stock solution of 20 mg/ml was prepared by dissolving in 0.9% NaCl, aliquoted and stored at −20° C. Aliquots were thawed, diluted with saline if needed to a desired concentration and used on the same day prepared at indicated doses. • (iii) Murine cell lines—Mammary luciferase (luc)-labeled 4T1 cell line (4T1-Luc) was a kind gift from Dr. Zvi Granot (Faculty of Medicine, The Hebrew University of Jerusalem, Israel); melanoma B16-F10 cell line was obtained from the American Type Culture Collection (ATCC, Manassas, Va.); bladder MB49 cell line was a kind gift from James Allison (MSKCC, New York, USA), and luc-labeled MB49-cell line was established using the murine stem cell virus (MSCV)-puromycin-luc-GFP construct (kindly provided by Dr. Emily Cheng, Human Oncology and Pathogenesis Program, MSKCC). 4T1 and MB49 cells were maintained in DMEM medium and B16-F10 cells in RPMI medium supplemented with 1 mmol/L sodium pyruvate, 10% fetal calf serum (FCS), 250 μg/ml hygromycin, 0.06 mg/ml penicillin and 0.1 mg/ml streptomycin. The cells were grown as monolayer at 37° C. in a humidified atmosphere (5% CO2, 95% air). • (iv) Murine tumor models—Female, Balb/c mice (6-8 week old) were grafted either subcutaneously (s.c.) into the right hind leg or orthotopically with 1×10^6 4T1 cells suspended in 50 or 1000 PBS. […] Whole body imaging of luciferase-transfected tumors and metastases were recorded five minutes following 75 mg Kg^−1 intraperitoneal (i.p.) injection of D-luciferin with respective filter sets. • (vi) PDT treatment protocol: 4T1-Luc cells were grafted in the mammary pad of Balb/c mice. […] Ablation of primary tumors was assessed every 7 days by imaging the tumor's luciferase-mediated bioluminescence signal, using IVIS.

[5] = test system: s.c. 4T1-luc breast tumors; assay: WST11 VTP with or without single dose CTX in mice bearing s.c. 4T1-luc tumors in the hind leg (Scheme 4); format: in vivo, Balb/c mice; settings: CTX 50 or 150 mg/kg alone; WST11 VTP at low light intensity (100 mW/cm^2) alone; or combination
Experimental: as §2

With “3^1-oxo-15-methoxycarbonylmethyl-Rhodobacteriochlorin 13^1-(2-sulfoethyl)amide-17^3-(cycloRGDfK) amide potassium salt [STL-6014]” the “percentage of G-MDSC/neutrophils and M-MDSC in spleen compared to control” value ([1]; first week post treatment) was “significantly reduced”, the “effect on Treg populations in spleen compared with controls” value ([1]; mouse, in vivo) was “Much smaller effects” and the “survival compared to control (Kaplan-Meier)” value ([2]; 120 days follow up, monotherapy) was “did not show any significant survival difference”. For the same compound, the “animals with primary tumor regrowth” value ([2]; day 30 post treatment) was 82%.
In the case of `CC[C@H]1c2cc3[nH]c(c(CC(=O)OC)c4nc(cc5[nH]c(cc(n2)[C@@H]1C)c(C(C)=O)c5C)[C@@H](C)[C@@H]4CCC(=O)O)c(C(=O)NCCS(=O)(=O)[O-])c3C.[K+]` [STL-7012, 3^1-oxo-15-methoxycarbonylmethyl-Rhodobacteriochlorin 13^1-(2-sulfoethyl) amide dipotassium salt], the clearance [3] is reported as “cleared through the liver within a few hours of injection” and the “accumulation in the tumor (NIR fluorescence)” value ([3]; STL-6014 7.5 mg/kg, STL-7012 9.5 mg/kg) is reported as “did not accumulate in the tumor”.
In the case of `O=P1(N(CCCl)CCCl)NCCCO1` (stereo not shown) [CTX, Cyclophosphamide], the “number of cells in the draining lymph nodes and spleens” value ([4]; low dose CTX three days prior VTP, on the VTP day) is reported as “reduced”, the “tumor infiltration by regulatory Foxp3+ T cells” value ([4]; three days after CTX administration) is reported as “significantly reduces” and the “G-MDSC/neutrophils in the tumor microenvironment” value ([4]; three days post low dose CTX (VTP day)) is reported as “reduced”. For the same compound, the primary tumor growth [5] was “unable to suppress primary tumor growth”.
